Patent US5376658A, “5,10-methylene-tetrahydrofolate as a modulator of a chemotherapeutic agent” (priority 1993, dated 1994)

Experiments:
[1] = tested on: TS; test: TS assay in liver tumors of rats bearing transplanted hepatic colonic carcinoma; type: in vivo, rat; conditions: 30 mg/kg each; 24 h after last injection; control 18.96
Excerpt: (§1) The present inventors have considerable experience with this model, and the antitumor effects of 5-FU shown are typical results, as are the TS and folate assays of control and 5-FU-only-treated rats. […] In fact, the "free TS" levels in the (6R,S)-FH4 -only-treated rats were the lowest of all arms of the study.
(§2) ^b Inoculation of 1 × 10^6 viable colon tumor
(§3) (nitrosoguanidineinduced) cells under the liver capsule on Day 1 (Carlsso
(§4) et al., Anticancer Res. 10:813-16 (1990)). Animals sacrificed on Day 17
(§5) for excision of single liver tumor nodules for pharmacodynamic studies.
(§6) ^d Assays done as described (Spears et al. Adv. Exp. Med. Biol.

[2] = tested on: hepatic colonic carcinoma; test: Tumor weight in rats bearing transplanted hepatic colonic carcinoma; type: in vivo, rat
Excerpt: as §1
>94% by HPLC). The (6 R,S)FH 4 was weighed, dissolved in normal
saline, and injected daily by tail vein administration using the airfree
Protector device to prevent oxidative destruction of the folate.
as §2, §3, §4, §5

[3] = tested on: 5,10-CH2 FH4 and FH4 levels in liver tumor; test: Folate assay (5,10-CH2 FH4 and FH4) in liver tumors of rats; type: in vivo, rat; conditions: 30 mg/kg each, 24 h after last injection
Excerpt: as §1, §2, §3, §4, §5, §6

[4] = cited from earlier work
[5] = tested on: CCRF-CEM cells; test: Intracellular CH2 FH4 and FH4 levels in CCRF-CEM cells after exposure to 10 μM folate; type: cell-based, human; conditions: 90 min exposure
Excerpt: In further support of the hypothesis that objectives of CH2 FH4 administration are increases in FH4 and FH4 /CH2 FH4 values, are the results of a cell culture study, shown in Table VI, comparing the relative effectiveness of different folate forms on assayed intracellular levels of the two folates.

[6] = molecular target: T1, L. casei TS-[3H]FdUMP (Lacticaseibacillus casei, UniProt P00469); test: TS-[3H]FdUMP-folate ternary complex binding assay
T1 sequence (P00469 1-316): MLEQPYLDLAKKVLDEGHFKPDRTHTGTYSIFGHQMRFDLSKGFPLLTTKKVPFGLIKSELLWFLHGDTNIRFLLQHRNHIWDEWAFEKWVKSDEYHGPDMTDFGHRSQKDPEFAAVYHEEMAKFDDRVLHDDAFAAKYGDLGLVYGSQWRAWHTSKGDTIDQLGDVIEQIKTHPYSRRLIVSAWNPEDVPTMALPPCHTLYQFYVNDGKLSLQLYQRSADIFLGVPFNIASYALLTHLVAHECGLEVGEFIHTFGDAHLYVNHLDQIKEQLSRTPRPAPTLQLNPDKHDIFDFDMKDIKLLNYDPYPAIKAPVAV
Description: The CH2 FH4 was prepared as the racemic (6R, S) material from (6R, S)-FH4 and excess formaldehyde, and DEAE-column isolation as described in FIG. 1. This preparation was essentially free of free formaldehyde based on colorimetric assay of bulk material (Nash, Biochem. J. 55:416-21 (1953)).
At all concentrations (total assays volume 150 μl ), excess formaldeyde was required to obtain maximal binding (which was still only 19.3% of stoichiometric binding). A notable effect was the increasing need for formaldehyde addition with increasing dilution, to obtain maximal CH2 FH4 assay recovery.
TS[^3 H]FdUMP-folate ternary complex formation without formaldehyde
addition was 38.5% of the value for the natural (6R)CH2 FH4 wit
6 mM formaldehyde added. (About 1 pmole of parent CH2 FH4 was
^b Only 11.8 ± 7.9% of maximal L. casei TS[^3 H]FdUMP-folate
ternary complex formation (using 6 mM formaldehyde concentration) which i
The unnatural diastereomer, (6S)-CH2 FH4 prepared by DEAE-column,potassium bicarbonate separation from the natural diasteromer as described in Example 8, was dissolved in 0.2M Tris-HCl buffer, pH 7.0, containing sodium ascorbate (100 mM) and 2-mercaptoethanol. This preparation was from the same lot of material described in Example 8. As noted in the footnote of Table VII, in the absence of supplemental formaldehyde, the yield of dextrancharcoal isolated complex was 38.5% of the value for the natural (6R)-CH2 FH4 (with added 6 mM formaldehyde).

[7] = tested on: transplanted colon cancer; test: Comparison of natural and unnatural CH2 FH4 diastereomers in rats bearing transplanted colon cancer; type: in vivo, rat; conditions: 15 mg/kg, Day 17, no fluorinated pyrimidine
Excerpt: A study has been completed, for comparison of natural (6R)-CH2 FH4 and unnatural (6S)-CH2 FH4 diastereomers. The preparation of the two forms was done as described by Kisliuk, et al., Cancer Treat. Rep. 61:647-50 (1977), using DEAE-cellulose column chromatography, with elution by potassium bicarbonate buffer. The two separate major peaks were individually pooled, lyophilized to dryness, and used for injection. As in the original detailed description of the method of Kisliuk, et al. (Biochem. 20:929-934), the methylene content was substoichiometric with tetrahydrofolate (FH4). That is, methylene units were present in apparently lower concentration than FH4 concentrations.
Rats bearing the transplanted colon cancer, as described in Example 4 and in Carlsson, et al., Anticancer. Res. 10:813-816, 1991, were treated with either the (6R)-CH2 FH4 or the (6S)-CH2 FH4, formulated and injected according to the methods described in Table IV, except that the injected amounts were 15 mg/kg per dose.
At Day 17, the rats were sacrificed, and the tumors were measured for both volume end weight. Volumes were calculated by the equation for an ellipsoid in revolution, V=(4/3)πab^2 were a=the long diameter/2 and b=the perpendicular short diameter/2.
The filled circles are the weights and volumes of tumors of rats treated with the unnatural (6S)-CH2 FH4 diastereomer (mostly (6R)-FH4 material in dilute solution and blood); the triangles are results for the natural (6R)-CH2 FH4 (mostly (6S)-FH4); and the open circles, control non-treated tumors. It is emphasized here that no fluorinated pyrimidine was used, just the folate injections.

[8] = tested on: thymidylate synthase (TS); test: TS level in serial tumor biopsies, patient three (skin metastasis from gastric carcinoma), [6-3H]FdUMP ligand-binding assay; type: in vivo, human; conditions: for TS, % of Baseline / Thymidylate synthase (TS): 30 mg IV; for Thymidylate synthase (TS): baseline 1.31
Description: The assays were performed by the methods described in Spears et al., Adv. […] The serial biopsies were done following single dose administration of CH2 FH4.
The assays were also performed on the day of CH2 FH4 administration.

[9] = tested on: thymidylate synthase (TS); test: TS level in serial tumor biopsies, patient one (rectal adenocarcinoma), [6-3H]FdUMP ligand-binding assay; type: in vivo, human
Description: CH2 FH4 was formulated, assayed, and administered to 2 patients who had previously been treated with 5-FU. The assays were performed by the methods described in Spears et al., Adv. Exp. Med. Biol. 244:98-104 (1988). In the data shown, the TS inhibition profiles that resulted from CH2 FH4 administration were not due to concurrent 5-FU dosing. The most recent exposure to 5-FU in these cases was slightly greater than a week prior to the study date, with the patients eligible, however, from the standpoint of toxicity evaluation to receive the weekly dose of 5-FU. Thus, residual FdUMP levels from previous exposure, below the detectable limits for assay, were expected to be present (See spears et al. Mol. Pharmacol. 27:302-07 (1985)). The serial biopsies were done following single dose administration of CH2 FH4.
The formulation of CH2 FH4 was as described in Example 2, and was performed on the day of CH2 FH4 administration. The assays were also performed on the day of CH2 FH4 administration.
^a On Week #1 the CH2 FH4 was formulated at pH 2.0,
DEAEpurified; On Week #2 the preparation was pH 9.0, with 6 mM (final
concentration) CH2 O added, no DEAE step used.
^c By [6^3 H]FdUMP ligandbinding assay (Spears et al., Cancer Res
In patient one, a person with locally unresectable advanced rectal adenocarcinoma, the TS pharmacodynamic tumor tissue analyses were done twice, nine days apart. Following study, the person continued to receive intermittent bolus 5-FU. […] There were modifications of the CH2 FH4 formulation between the 2 pharmacodynamic studies (See Table III). In the first study week, the pH was not adjusted up from 2.0, after DEAE column isolation of the Sigma (6R,S)-CH2 FH4. Thus, some of this folate may also have been 5,10-methenyl-tetrahydrofolate. In the second study week, the pH was adjusted up to 9.0, and no DEAE step was used (with therefore 6 mM formaldehyde being present in the 40-cc volume for injection).

[10] = tested on: breast cancer; test: Clinical effect in patients receiving 5-FU plus high-dose (6R,S)-leucovorin with L-serine or glycine; type: in vivo, human; conditions: person; L-serine i.v. added to 5-FU/(6R,S)-leucovorin, subsequently glycine 10 grams i.v.
Description: As noted previously (see pages 5-6) and mentioned in C. P. Spears, et al., Proc. Am. […] Clin. Oncol. 8:69 (1989), the inventors have used pharmacologic intervention to convert intracellular FH4 to CH2 FH4 in patients receiving high-dose reduced folate therapy combined with weekly i.v. bolus 5-FU, 450 mg/sq. m. The method used was administration of i.v. L-serine, 15.0 grams, over 1 hour after the end of overnight high-dose (6R,S)-leucovorin i.v. infusion.

[11] = separate confirmatory experiment, 6 rats/group

With `Cl.Cl.Nc1nc2c(c(=O)[nH]1)NC(CNc1ccc(C(=O)N[C@@H](CCC(=O)O)C(=O)O)cc1)CN2.O` (mixture of isomers) [(6R,S)-FH4, 5,6,7,8Tetrahydropteroyl-L-glutamic acid dihydrochloride monohydrate] the TS [1] was 7.13 p mole/g, the Tumor weight ([2]; Day 17 after transplantation, 30 mg/kg each, average of 3 rats, control 5.84) was 10.43 g and the “tumor growth, % of control tumor weight” value [2, 11] was 171%. The “tumor size (weight)” value [2, 11] was 6.0 ± 1.1 g, the “5,10-CH2 FH4” value ([3]; control 0.69) was 2.93 nmol/g and the FH4 ([3]; control 1.18) was 2.31 nmol/g. For the same molecule, the stability of powder ([4]; anaerobic conditions, room temperature) was “stable even at room temperature, for a year or more”, the “stability under anaerobic conditions” value ([4]; anaerobic conditions) was “completely stable” and the degradation of solution ([4]; in […], exposed to air) was 90%.
In the case of `Nc1nc2c(c(=O)[nH]1)N1CN(c3ccc(C(=O)N[C@@H](CCC(=O)O)C(=O)O)cc3)C[C@H]1CN2` [(6R)-CH2 FH4], the “Intracellular CH2 FH4” value ([5]; control 0.04) is reported as 0.19 nmole/10^9 Cells, the “Intracellular FH4” value ([5]; control 3.08) is reported as 8.81 nmole/10^9 Cells and the “% of maximal L. casei TS-[3H]FdUMP-folate ternary complex formation” value ([6]; maximal = using 6 mM formaldehyde) is reported as 11.8 ± 7.9%. The “Tumor volume ± SE” value ([7]; control 7.81) was 12.58 and the “Tumor weight ± SE” value ([7]; control 7.93) was 9.11.
For `Nc1nc2c(c(=O)[nH]1)N1CN(c3ccc(C(=O)N[C@@H](CCC(=O)O)C(=O)O)cc3)CC1CN2` (some centres unmarked) [CH2 FH4, 5,10-methylene-tetrahydrofolate], the “TS, % of Baseline” value ([8]; 10 min) was 19.8%, the “TS, % of Baseline” value ([8]; 20 min) was 42.7% and the “TS, % of Baseline” value ([8]; 40 min) was 75.6%. The “TS, % of Baseline” value ([8]; 60 min) was 112.2%, the “Thymidylate synthase (TS)” value ([8]; biopsy at 10 min) was 0.26 pmol/g and the “Thymidylate synthase (TS)” value ([8]; biopsy at 20 min) was 0.56 pmol/g. The “Thymidylate synthase (TS)” value ([8]; biopsy at 40 min) was 0.99 pmol/g, the “Thymidylate synthase (TS)” value ([8]; biopsy at 60 min) was 1.47 pmol/g and the “TS inhibition / decrease over baseline value” ([8]; 10 min (first biopsy)) was 80.2%. For the same molecule, the TS inhibition ([8]; 20 min) was 57.3%, the “maximal binding, % of stoichiometric binding” value ([6]; 0.2M Tris pH 7.4, excess formaldehyde (6 mM)) was 19.3% and the “TS, % of Baseline” value ([9]; Week #1, 35 mg IV, 10 min) was 212.4%. For the same molecule, the “Thymidylate synthase (TS)” value ([9]; Week #1, 35 mg IV, 10 min, baseline 5.77) was 6.28 pmol/g, the “TS, % of Baseline” value ([9]; Week #1, 35 mg IV, 20 min) was 43.7% and the “Thymidylate synthase (TS)” value ([9]; Week #1, 35 mg IV, 20 min, baseline 5.77) was 2.26 pmol/g. For the same molecule, the “TS, % of Baseline” value ([9]; Week #1, 35 mg IV, 30 min) was 114.1%, the “Thymidylate synthase (TS)” value ([9]; Week #1, 35 mg IV, 30 min, baseline 5.77) was 5.90 pmol/g and the “TS, % of Baseline” value ([9]; Week #1, 35 mg IV, 24 hr) was 122.2%. The “Thymidylate synthase (TS)” value ([9]; Week #1, 35 mg IV, 24 hr, baseline 5.77) was 6.32 pmol/g, the “TS, % of Baseline” value ([9]; Week #2, 50 mg IV, 10 min) was 181.7% and the “Thymidylate synthase (TS)” value ([9]; Week #2, 50 mg IV, 10 min, baseline 5.64) was 10.25 pmol/g. The “TS, % of Baseline” value ([9]; Week #2, 50 mg IV, 20 min) was 104.8%, the “Thymidylate synthase (TS)” value ([9]; Week #2, 50 mg IV, 20 min, baseline 5.64) was 5.91 pmol/g and the “TS, % of Baseline” value ([9]; Week #2, 50 mg IV, 30 min) was 35.8%. For the same molecule, the “Thymidylate synthase (TS)” value ([9]; Week #2, 50 mg IV, 30 min, baseline 5.64) was 2.02 pmol/g, the “TS, % of Baseline” value ([9]; Week #2, 50 mg IV, 40 min) was 61.3% and the “Thymidylate synthase (TS)” value ([9]; Week #2, 50 mg IV, 40 min, baseline 5.64) was 3.46 pmol/g. For the same molecule, the “storage stability in solution” value ([4]; column-isolated, under argon at -80° C.) was “up to a year without decomposition” and the “stability in the presence of oxygen” value ([4]; solutions and powder, oxygen, catalyzed by light, acid, base, heavy metals) was “unstable”.
With `NCC(=O)O` [glycine] the “Clinical effect, third patient” value [10] was “rapid response to 5-FU therapy”.
